Laboratory results taken from patent US11919887B2, “Substituted tetrahydrofurans as modulators of sodium channels” (Vertex Pharmaceuticals Incorporated, priority 2019, dated 2024).

target: human Nav 1.8 (Homo sapiens, UniProt Q9Y5Y9); assay: E-VIPR assay detecting and measuring Nav inhibition (HEK cells expressing truncated human Nav 1.8); type: cell-based; settings: in the Absence of Human Serum in the E-VIPR Assay; read-out: IC50
Summary of the method: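 HEK cells expressing truncated human Nav1.8, transduced with KIR2.1 BacMam, were loaded with CC2-DMPE/DiSBAC6(3) FRET dyes and tested under electrical stimulation (E-VIPR). Compounds were run as 11-point 3-fold dilutions, top 300 nM final, 0.625% DMSO, with or without 25% human serum.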

Sequence of human Nav 1.8 (Q9Y5Y9 whole entry, looked up, the tested form may be a part): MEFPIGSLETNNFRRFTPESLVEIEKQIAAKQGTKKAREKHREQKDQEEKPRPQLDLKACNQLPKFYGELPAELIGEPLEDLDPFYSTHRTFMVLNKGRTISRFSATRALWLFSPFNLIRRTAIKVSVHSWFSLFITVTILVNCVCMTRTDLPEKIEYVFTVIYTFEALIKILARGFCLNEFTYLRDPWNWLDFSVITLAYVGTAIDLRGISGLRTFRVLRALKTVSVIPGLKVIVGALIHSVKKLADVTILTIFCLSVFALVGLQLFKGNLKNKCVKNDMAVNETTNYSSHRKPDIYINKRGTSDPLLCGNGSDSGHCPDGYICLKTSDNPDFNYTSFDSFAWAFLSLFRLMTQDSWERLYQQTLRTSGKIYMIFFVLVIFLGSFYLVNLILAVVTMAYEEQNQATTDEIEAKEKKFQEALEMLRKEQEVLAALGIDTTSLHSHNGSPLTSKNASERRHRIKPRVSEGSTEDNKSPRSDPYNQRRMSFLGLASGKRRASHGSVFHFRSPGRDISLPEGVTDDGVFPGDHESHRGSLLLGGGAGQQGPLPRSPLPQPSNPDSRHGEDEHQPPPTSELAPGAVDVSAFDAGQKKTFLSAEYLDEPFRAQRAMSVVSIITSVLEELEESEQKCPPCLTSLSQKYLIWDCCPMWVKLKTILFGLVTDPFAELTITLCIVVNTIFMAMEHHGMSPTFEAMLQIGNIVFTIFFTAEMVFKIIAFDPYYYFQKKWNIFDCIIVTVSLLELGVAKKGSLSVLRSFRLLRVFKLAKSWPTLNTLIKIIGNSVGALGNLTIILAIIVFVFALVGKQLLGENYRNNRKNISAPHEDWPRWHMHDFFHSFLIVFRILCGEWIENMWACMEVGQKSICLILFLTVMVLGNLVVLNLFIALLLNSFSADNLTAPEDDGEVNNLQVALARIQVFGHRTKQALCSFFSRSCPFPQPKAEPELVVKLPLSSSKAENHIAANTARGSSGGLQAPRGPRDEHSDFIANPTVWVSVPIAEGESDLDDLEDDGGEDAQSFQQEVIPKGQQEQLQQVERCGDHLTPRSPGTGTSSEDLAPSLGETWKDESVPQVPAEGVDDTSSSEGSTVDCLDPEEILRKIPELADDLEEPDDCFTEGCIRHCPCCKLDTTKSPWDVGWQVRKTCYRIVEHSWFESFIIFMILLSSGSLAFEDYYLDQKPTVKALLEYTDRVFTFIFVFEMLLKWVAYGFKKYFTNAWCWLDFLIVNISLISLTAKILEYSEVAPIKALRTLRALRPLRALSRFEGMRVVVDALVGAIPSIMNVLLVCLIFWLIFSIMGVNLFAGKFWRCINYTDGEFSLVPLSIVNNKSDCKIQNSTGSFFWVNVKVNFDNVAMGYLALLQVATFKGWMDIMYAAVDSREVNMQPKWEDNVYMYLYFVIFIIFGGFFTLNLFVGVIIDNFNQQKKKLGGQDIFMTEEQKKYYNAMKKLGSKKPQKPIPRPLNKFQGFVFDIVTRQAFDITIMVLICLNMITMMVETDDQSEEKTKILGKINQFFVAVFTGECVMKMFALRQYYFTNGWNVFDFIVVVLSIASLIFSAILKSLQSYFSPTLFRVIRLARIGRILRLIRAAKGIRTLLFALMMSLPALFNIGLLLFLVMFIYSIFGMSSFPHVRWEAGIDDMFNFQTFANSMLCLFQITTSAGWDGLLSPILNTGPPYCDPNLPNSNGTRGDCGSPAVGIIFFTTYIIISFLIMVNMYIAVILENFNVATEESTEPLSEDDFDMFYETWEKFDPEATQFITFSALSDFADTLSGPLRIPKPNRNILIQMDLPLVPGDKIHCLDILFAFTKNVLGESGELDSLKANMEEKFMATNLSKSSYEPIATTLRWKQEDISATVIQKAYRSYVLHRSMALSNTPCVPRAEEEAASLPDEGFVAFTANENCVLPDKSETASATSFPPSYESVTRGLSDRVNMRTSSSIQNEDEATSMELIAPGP

Structure (SMILES) | IC50 [nM]
COc1c([C@H]2[C@H](C(=O)Nc3cncc(C(N)=O)n3)O[C@@](C)(C(F)(F)F)[C@H]2C)ccc(F)c1F [Compound 117, 6-[[(2R,3S,4S,5R)-3-(3,4-difluoro-2-methoxy-phenyl)-4,5-dimethyl-5-(trifluoromethyl)tetrahydrofuran-2-carbonyl]amino]pyrazine-2-carboxamide] | 10 to 100
C=Cc1c([C@H]2[C@H](C(=O)Nc3ccnc(C(N)=O)c3)O[C@@](C)(C(F)(F)F)[C@H]2C)ccc(F)c1F [Compound 149, 4-[[(2R,3S,4S,5R)-3-(3,4-difluoro-2-vinyl-phenyl)-4,5-dimethyl-5-(trifluoromethyl)tetrahydrofuran-2-carbonyl]amino]pyridine-2-carboxamide] | < 10
COc1cc(C(F)(F)F)ncc1[C@H]1[C@H](C(=O)Nc2ccnc(C(N)=O)c2)O[C@@](C)(C(F)(F)F)[C@H]1C (racemic) [compound 139] | > 1000
COc1c([C@H]2[C@H](C(=O)Nc3ccc(F)c(C(N)=O)c3)O[C@@](C)(C(F)(F)F)[C@H]2C)ccc(F)c1F [Compound 123, (2R,3S,4S,5R)-N-(3-carbamoyl-4-fluoro-phenyl)-3-(3,4-difluoro-2-methoxy-phenyl)-4,5-dimethyl-5-(trifluoromethyl)tetrahydrofuran-2-carboxamide] | < 10

same assay, conditions: in the Presence of Human Serum in the E-VIPR Assay

Structure (SMILES) | IC50 [nM]
COc1c([C@@H]2[C@@H](C(=O)Nc3ccnc(C(N)=O)c3)O[C@](C)(C(F)(F)F)[C@@H]2C)ccc(F)c1F [Compound 6, (2S,3R,4R,5S)-4-[[3-(3,4-difluoro-2-methoxy-phenyl)-4,5-dimethyl-5-(trifluoromethyl)tetrahydrofuran-2-carbonyl]amino]pyridine-2-carboxamide] | > 1000

same assay, conditions: in the Presence of Human Serum in the E-VIPR Assay; read-out: IC50

Structure (SMILES) | IC50 [nM]
Cc1c(F)ccc([C@@H]2C[C@](C)(C(F)(F)F)O[C@H]2C(=O)Nc2ccnc(C(N)=O)c2)c1F (single isomer, unassigned) [Compound 76] | 100 to 1000
CNC(=O)c1cc(NC(=O)[C@@H]2O[C@@](C)(C(F)(F)F)C[C@H]2c2ccc(F)c(Cl)c2OC)ccn1 (single isomer, unassigned) [Compound 60] | 10 to 100
Cc1c(F)ccc([C@H]2[C@H](C(=O)Nc3ccnc(C(N)=O)c3)O[C@@](C)(C(F)(F)F)[C@H]2C)c1OC(F)F (stereo in doubt) [Compound 16, rel-(2R,3S,4S,5R)-4-[[3-[2-(difluoromethoxy)-4-fluoro-3-methyl-phenyl]-4,5-dimethyl-5-(trifluoromethyl)tetrahydrofuran-2-carbonyl]amino]pyridine-2-carboxamide] | > 1000
COc1c([C@@H]2C[C@](C)(C(F)(F)F)O[C@H]2C(=O)Nc2cc[n+]([O-])c(C(N)=O)c2)ccc(F)c1F (relative stereo) [Compound 54, rel-(2R,3S,5R)-4-[[3-(3,4-difluoro-2-methoxy-phenyl)-5-methyl-5-(trifluoromethyl)tetrahydrofuran-2-carbonyl]amino]-1-oxido-pyridin-1-ium-2-carboxamide] | 100 to 1000
C[C@@]1(C(F)(F)F)C[C@H](c2ccc(F)cc2OC(F)F)[C@@H](C(=O)Nc2ccnc(C(N)=O)c2)O1 [compound 73] | > 1000
COc1cc(F)ccc1[C@@H]1[C@@H](C(=O)Nc2ccnc(C(N)=O)c2)O[C@](C)(C(F)(F)F)[C@H]1C (single isomer, unassigned) [Compound 38] | > 1000
C[C@H]1[C@@H](c2ccc(F)c(F)c2OC(F)F)[C@H](C(=O)Nc2cccc(C(N)=O)c2)O[C@@]1(C)C(F)(F)F (single isomer, unassigned) [compound 52] | < 10
CCOc1c([C@H]2[C@H](C(=O)Nc3cc[n+]([O-])c(C(N)=O)c3)O[C@@](C)(C(F)(F)F)[C@H]2C)ccc(F)c1F [Compound 55, (2R,3S,4S,5R)-4-[[3-(2-ethoxy-3,4-difluoro-phenyl)-4,5-dimethyl-5-(trifluoromethyl)tetrahydrofuran-2-carbonyl]amino]-1-oxido-pyridin-1-ium-2-carboxamide] | < 10
COc1c([C@H]2C[C@@](C)(C(F)(F)F)O[C@@H]2C(=O)Nc2ccnc(C(N)=O)c2)ccc(F)c1Cl (relative stereo) [Compound 20, rel-(2S,3R,5S)-4-[[3-(3-chloro-4-fluoro-2-methoxy-phenyl)-5-methyl-5-(trifluoromethyl)tetrahydrofuran-2-carbonyl]amino]pyridine-2-carboxamide] | > 1000
COc1c([C@@H]2C[C@H](C(F)(F)F)O[C@H]2C(=O)Nc2ccnc(C(N)=O)c2)ccc(F)c1C (single isomer, unassigned) [Compound 112] | 100 to 1000
COc1c([C@@H]2C[C@](C)(C(F)(F)F)O[C@H]2C(=O)Nc2ccc(F)c(C(N)=O)c2)ccc(F)c1F (single isomer, unassigned) [Compound 47] | 10 to 100
COc1c([C@@H]2[C@@H](C)C(C)(C)O[C@H]2C(=O)Nc2ccnc(C(N)=O)c2)ccc(F)c1F (single isomer, unassigned) [Compound 103] | > 1000
